The record followed here is ChEMBL document CHEMBL5465560, “Selectivity Literature for EUbOPEN Chemogenomic Library” (2024).

The structures appear in SMILES notation. Where only a bound is given, the exact number is not on record here.

Series [1] concerns the target Serine/threonine-protein kinase PAK 2 (Homo sapiens) (UniProt Q13177). Nature of the series: Selectivity interaction (Kinase panel (Eurofins)) EUB0001564a PAK2. Particulars: at 1 µM.
The target in series [2] is Calcium/calmodulin-dependent protein kinase type 1D (Homo sapiens) (UniProt Q8IU85). Kind of series: Selectivity interaction (SelectScreen profiling (Invitrogen)) EUB0000607a CAMK1D. Particulars: at 2 µM.
The target of series [3] is T1, Inhibitor of nuclear factor kappa-B kinase subunit alpha (Homo sapiens) (UniProt O15111).
T1 sequence (whole entry): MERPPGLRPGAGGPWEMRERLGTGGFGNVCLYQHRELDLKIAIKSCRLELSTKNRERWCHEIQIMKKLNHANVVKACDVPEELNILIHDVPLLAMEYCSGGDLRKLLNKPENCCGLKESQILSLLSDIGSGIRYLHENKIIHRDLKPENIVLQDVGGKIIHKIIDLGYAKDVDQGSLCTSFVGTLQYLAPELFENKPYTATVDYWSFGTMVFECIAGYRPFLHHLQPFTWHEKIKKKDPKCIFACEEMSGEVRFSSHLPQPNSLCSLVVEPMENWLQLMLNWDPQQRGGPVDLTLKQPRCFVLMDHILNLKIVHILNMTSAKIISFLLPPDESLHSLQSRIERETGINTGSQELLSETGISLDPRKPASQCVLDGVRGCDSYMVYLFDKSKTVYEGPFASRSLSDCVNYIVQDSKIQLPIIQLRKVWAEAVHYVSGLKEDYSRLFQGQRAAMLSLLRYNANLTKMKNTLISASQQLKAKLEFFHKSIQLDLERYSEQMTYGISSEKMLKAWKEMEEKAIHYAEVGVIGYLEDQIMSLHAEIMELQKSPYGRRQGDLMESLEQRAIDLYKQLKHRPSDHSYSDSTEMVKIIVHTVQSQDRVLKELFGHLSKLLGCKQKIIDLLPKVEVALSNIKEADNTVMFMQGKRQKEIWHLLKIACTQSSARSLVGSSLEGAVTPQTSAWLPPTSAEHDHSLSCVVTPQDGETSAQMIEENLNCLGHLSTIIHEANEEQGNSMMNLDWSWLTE
Kind of series: Selectivity interaction (KinomeScan (DiscoverX)) EUB0000607a CHUK. As to conditions: at 10 µM.

Series [4] deals with Protein kinase C alpha type (Homo sapiens, UniProt P17252). Nature of the series: Selectivity interaction (SelectScreen profiling (Invitrogen)) EUB0000607a PRKCA. Particulars: at 2 µM.
Series [5] concerns the target T2, Ephrin type-B receptor 4 (Homo sapiens) (UniProt P54760).
T2 sequence (whole entry): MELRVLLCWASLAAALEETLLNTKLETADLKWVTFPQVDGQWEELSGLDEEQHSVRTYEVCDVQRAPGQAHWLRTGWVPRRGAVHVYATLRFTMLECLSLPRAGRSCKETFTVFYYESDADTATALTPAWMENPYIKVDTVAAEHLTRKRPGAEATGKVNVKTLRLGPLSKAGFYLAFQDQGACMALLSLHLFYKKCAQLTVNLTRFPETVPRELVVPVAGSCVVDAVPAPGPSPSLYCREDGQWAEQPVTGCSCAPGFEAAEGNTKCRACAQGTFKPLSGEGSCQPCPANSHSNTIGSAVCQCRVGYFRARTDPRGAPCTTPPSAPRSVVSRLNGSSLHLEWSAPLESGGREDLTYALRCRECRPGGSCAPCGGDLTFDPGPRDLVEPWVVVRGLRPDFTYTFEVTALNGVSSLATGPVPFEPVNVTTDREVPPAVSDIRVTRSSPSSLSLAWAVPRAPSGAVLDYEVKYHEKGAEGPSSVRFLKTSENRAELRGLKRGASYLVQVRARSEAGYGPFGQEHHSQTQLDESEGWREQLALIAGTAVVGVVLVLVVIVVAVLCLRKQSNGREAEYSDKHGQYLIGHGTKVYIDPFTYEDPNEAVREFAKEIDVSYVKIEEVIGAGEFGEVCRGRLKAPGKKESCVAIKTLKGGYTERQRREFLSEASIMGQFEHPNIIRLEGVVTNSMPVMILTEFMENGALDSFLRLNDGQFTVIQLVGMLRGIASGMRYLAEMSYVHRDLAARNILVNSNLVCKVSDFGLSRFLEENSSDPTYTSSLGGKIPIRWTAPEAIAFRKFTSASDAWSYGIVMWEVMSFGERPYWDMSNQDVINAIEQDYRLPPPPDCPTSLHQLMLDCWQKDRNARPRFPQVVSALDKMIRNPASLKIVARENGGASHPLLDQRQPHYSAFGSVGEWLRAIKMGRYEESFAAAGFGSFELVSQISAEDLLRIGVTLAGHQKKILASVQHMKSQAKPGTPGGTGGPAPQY
As to conditions: at 10 µM.

The target in series [6] is Tyrosine-protein kinase JAK1 (Homo sapiens, UniProt P23458). Nature of the series: Selectivity interaction (ActivX KiNativ screen (kinase selectivity in THP-1 cell lysates)) EUB0000639a JAK1. The format is subcellular. As to conditions: lysate.
Series [7] deals with Death-associated protein kinase 2 (Homo sapiens) (UniProt Q9UIK4). Nature of the series: Selectivity interaction (KinomeScan (DiscoverX)) EUB0000045b DAPK2.
Series [8] addresses T3, Aurora kinase A (Homo sapiens) (UniProt O14965).
T3 sequence (whole entry): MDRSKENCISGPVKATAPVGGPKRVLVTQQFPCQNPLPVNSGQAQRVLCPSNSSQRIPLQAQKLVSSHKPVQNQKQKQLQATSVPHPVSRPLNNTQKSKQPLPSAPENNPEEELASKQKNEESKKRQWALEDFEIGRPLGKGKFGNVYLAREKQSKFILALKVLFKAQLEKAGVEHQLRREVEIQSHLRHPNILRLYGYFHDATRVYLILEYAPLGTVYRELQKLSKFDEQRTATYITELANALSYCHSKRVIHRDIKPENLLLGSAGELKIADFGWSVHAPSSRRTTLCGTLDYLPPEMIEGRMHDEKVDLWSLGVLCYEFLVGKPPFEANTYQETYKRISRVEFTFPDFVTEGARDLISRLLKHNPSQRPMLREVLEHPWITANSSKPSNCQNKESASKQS
Kind of series: Selectivity interaction (Kinase panel (literature)) EUB0001199aCl STK6. Particulars: at 1 µM.

The target of series [9] is Ribosomal protein S6 kinase alpha-2 (Homo sapiens) (UniProt Q15349). Nature of the series: Selectivity interaction (KinomeScan (DiscoverX)) EUB0001049a RPS6KA2. Particulars: at 1 µM.
The target of the next series is KCNE1 (Homo sapiens, UniProt P15382). Kind of series: Selectivity interaction (Panel of kinases, GPCRs, ion channels and transporters (enzymatic assay)) EUB0000223bCl KCNE1.
In series [10] the target is Casein kinase I isoform gamma-2 (Homo sapiens) (UniProt P78368). Nature of the series: Selectivity interaction (KinomeScan (DiscoverX)) EUB0000618a CSNK1G2. As to conditions: at 10 µM.
Sequence of Casein kinase I isoform gamma-2 (Homo sapiens) (P78368 whole entry, looked up, canonical isoform): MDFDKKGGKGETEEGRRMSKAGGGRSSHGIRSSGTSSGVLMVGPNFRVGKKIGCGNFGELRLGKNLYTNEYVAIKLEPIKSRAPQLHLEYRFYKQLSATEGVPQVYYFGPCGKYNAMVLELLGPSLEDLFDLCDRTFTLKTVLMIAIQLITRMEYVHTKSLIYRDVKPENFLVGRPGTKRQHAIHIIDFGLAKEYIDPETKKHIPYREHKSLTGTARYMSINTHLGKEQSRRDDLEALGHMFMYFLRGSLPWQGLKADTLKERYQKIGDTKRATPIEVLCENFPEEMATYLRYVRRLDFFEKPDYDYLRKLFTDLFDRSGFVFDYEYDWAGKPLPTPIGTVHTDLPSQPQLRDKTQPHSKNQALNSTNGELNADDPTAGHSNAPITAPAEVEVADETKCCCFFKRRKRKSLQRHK

Sequence of Tyrosine-protein kinase JAK1 (P23458 whole entry): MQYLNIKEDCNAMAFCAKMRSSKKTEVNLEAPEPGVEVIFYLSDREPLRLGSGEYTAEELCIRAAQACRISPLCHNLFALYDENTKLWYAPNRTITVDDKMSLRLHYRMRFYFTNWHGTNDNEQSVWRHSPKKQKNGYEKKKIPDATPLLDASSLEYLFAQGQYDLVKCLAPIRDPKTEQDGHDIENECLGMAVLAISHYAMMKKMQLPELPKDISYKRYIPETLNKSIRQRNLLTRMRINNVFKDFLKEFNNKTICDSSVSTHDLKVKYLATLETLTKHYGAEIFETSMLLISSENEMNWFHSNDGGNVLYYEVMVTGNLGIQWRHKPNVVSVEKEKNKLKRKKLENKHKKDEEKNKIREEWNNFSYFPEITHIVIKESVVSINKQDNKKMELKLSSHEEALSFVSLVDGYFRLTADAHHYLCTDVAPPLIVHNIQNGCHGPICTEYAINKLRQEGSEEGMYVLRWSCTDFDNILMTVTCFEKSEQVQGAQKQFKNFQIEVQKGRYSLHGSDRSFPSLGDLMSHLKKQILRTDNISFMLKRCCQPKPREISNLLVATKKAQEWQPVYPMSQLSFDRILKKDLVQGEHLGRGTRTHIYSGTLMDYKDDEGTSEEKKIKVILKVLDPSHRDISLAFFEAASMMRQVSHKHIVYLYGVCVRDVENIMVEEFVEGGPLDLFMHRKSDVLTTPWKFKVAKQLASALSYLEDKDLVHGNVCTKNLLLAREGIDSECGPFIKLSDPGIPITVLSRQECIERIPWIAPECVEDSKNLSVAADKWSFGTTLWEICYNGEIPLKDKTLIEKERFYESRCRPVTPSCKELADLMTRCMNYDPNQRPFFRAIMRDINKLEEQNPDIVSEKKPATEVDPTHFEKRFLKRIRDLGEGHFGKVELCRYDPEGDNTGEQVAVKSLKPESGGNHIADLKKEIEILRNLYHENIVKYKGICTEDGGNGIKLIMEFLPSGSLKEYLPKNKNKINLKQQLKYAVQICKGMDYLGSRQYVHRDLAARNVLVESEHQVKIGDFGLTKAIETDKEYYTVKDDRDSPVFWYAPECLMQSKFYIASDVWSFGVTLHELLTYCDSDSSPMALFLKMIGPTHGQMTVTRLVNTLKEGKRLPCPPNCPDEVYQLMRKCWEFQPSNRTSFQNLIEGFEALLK
Sequence of Death-associated protein kinase 2 (Homo sapiens) (Q9UIK4 whole entry, looked up): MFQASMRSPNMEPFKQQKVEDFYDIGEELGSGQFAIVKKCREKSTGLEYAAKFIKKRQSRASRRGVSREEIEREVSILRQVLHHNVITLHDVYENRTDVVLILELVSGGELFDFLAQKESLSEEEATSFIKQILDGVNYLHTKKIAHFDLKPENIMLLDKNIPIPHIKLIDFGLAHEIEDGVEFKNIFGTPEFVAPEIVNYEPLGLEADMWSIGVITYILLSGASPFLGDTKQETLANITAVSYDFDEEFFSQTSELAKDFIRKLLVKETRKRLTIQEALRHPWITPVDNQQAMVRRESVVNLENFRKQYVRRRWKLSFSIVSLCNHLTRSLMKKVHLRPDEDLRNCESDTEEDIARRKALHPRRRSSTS
Sequence of Serine/threonine-protein kinase PAK 2 (Homo sapiens) (Q13177 whole entry): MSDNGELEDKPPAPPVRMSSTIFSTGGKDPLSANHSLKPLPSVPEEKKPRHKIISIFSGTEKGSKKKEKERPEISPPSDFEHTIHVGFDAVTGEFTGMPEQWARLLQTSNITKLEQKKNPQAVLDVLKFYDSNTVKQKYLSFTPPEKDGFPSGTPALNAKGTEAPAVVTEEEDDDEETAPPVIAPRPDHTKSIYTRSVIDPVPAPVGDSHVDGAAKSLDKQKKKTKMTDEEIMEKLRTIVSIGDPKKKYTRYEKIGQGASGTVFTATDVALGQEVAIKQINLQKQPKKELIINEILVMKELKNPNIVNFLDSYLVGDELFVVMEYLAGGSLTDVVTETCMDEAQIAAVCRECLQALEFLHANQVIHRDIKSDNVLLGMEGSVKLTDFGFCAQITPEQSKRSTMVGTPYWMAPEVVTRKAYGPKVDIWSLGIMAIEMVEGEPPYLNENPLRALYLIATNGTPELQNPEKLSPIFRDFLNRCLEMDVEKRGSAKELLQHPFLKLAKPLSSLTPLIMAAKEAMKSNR
Sequence of Ribosomal protein S6 kinase alpha-2 (Homo sapiens) (Q15349 whole entry): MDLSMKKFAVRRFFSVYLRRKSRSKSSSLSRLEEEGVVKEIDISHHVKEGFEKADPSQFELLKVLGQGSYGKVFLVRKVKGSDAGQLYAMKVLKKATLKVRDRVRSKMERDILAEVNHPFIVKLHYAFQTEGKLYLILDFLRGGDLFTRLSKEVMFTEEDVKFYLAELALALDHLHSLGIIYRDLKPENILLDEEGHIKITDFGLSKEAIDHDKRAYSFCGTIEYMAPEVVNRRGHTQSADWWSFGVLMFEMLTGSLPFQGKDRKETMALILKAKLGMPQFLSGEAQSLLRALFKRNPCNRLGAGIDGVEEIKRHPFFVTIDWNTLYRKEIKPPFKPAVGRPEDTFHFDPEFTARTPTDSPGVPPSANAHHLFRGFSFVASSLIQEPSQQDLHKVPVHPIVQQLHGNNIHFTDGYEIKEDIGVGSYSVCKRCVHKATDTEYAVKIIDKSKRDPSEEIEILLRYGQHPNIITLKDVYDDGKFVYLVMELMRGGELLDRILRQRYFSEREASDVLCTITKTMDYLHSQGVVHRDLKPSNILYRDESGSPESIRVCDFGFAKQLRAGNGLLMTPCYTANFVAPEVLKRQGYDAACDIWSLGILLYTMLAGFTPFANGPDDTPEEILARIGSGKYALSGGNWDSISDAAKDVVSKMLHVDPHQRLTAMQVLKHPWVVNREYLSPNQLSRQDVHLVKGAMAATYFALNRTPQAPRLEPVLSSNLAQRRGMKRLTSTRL
Sequence of Calcium/calmodulin-dependent protein kinase type 1D (Homo sapiens) (Q8IU85 whole entry, looked up): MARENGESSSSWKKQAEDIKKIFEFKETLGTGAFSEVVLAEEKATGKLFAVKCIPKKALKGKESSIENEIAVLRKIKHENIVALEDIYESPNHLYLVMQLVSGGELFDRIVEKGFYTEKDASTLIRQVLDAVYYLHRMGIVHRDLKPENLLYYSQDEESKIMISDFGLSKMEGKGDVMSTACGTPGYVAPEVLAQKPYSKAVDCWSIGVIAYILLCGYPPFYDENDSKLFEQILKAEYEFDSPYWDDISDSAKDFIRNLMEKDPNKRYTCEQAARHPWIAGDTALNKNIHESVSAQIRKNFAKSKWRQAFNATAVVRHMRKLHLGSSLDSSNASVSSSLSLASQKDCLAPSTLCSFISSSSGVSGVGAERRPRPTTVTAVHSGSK

For `CC[C@@H](Nc1c(C#N)c(-c2ccc(-c3cccc(C)c3F)cc2)nc2cnccc12)C(=O)O` [BAY-091], the % of inhibition in series [1] is 24.9%.

Take `CNC(=O)Nc1ccc(-c2nc(N3CC4CCC(C3)O4)c3cnn(C4CCC5(CC4)OCCO5)c3n2)cc1`: the % of inhibition in series [2] amounted to 0%; in series [4], 10%. Besides, the % of control in [3] came out at 100%.

`Cc1cc([C@@H](C)Nc2ccccc2C(=O)O)c2nc(N3CCOCC3)cc(=O)n2c1` [AZD-6482] registered a % of control in series [5] of 96%.

On to `CC[C@@H]1[C@H](F)C(=O)N[C@@H]1COc1nccc2cc(C(N)=O)c(OC)cc12` [ZIMLOVISERTIB], for which the % of inhibition in series [6] (at 0.01 µM) is 18%; in series [6] (at 0.04 µM) it was 15.6%; in [6] (at 0.2 µM), 11.9%; in series [6] (at 1 µM) it was 9%; in series [6] (at 5 µM) it was -24.4%.

As for `C=CC(=O)Nc1cc(-n2c(=O)ccc3cnc4ccc(-c5ccc(NS(C)(=O)=O)cc5)cc4c32)ccc1C`, the results for the % of control in series [7] (at 1 µM) and in series [7] (at 10 µM) were 100% and 94%, respectively.

In the case of `CN1Cc2nccc(-c3cn(C)nc3-c3ccc(F)cc3)c2C1=O`, the % of inhibition in series [8] was -4%.

Compound `COc1cc(Nc2nc(C)cc(-c3cnn4nc(OC)ccc34)n2)cc(C(F)(F)F)c1` returned a % of control in series [9] of 93%.

Consider `COc1cc(C(=O)N2CC[C@@H](O)[C@@H](N)C2)cc2nc(-c3cc4ccccc4n3CC3CC3)n(C)c12`, for which the XC50 on KCNE1 was over 25.1 µM.

The compound `O[C@H]1CC[C@H](Nc2ncc3nc(Nc4c(F)cc(F)cc4F)n([C@H]4CCOC4)c3n2)CC1` yielded a % of control in series [10] of 100%.
